From patent US20240124434A1, “ATF6 INHIBITORS AND USES THEREOF” (Altos Labs, Inc., priority 2018, published 2024)
Converted amounts (≈) assume the structure as drawn.

What was measured:
in vivo = conditions: Balb/c, mouse, po, 10 mg/kg
Description: (§3) Tested compounds were formulated at 1 mg/mL as a dosing solution for oral administration in vehicle A: 10% dimethylacetamide (DMAC), 20% propylene glycol, and 40% PEG-400 or vehicle B: 10% Kolliphor® EL and 10% ethanol (EtOH).
(§4) Animals were acclimated for a minimum period of 4 days upon arrival at the testing facility.
(§5) At the day of study, mice were weighed, identified by marking the tail with numbers using a non-toxic permanent marker, and designated into ten experimental groups (n=3 per group).
(§6) Non-dosed mice were used to collect samples of zero time points. […] Blood samples were centrifuged immediately at 9,000 g at 4° C. for 5 minutes and then plasmas were separated. Plasma samples were placed into individually labeled cryovials and stored in a −80° C. freezer until LC/MS/MS bioanalysis.
(§7) The bioanalysis of plasma samples was conducted with a QTRAP 4500 triple quadrupole mass spectrometer (Applied Biosystems SCIEX) in the positive ion mode and interfaced with an Ekspert Ultra LC100 UPLC System (Eksigent). Calibration standards (0.01 to 10 μM) and QCs (0.02, 0.2 and 2.0 μM) were prepared from naïve mouse plasma in parallel with mouse plasma study samples (60 μL) by precipitation with three volumes of ice cold internal standard solution (acetonitrile containing 20 μM of theophylline). The precipitated samples were centrifuged at 6,100 g for 30 min. Following centrifugation, an aliquot of each supernatant was transferred to an autosampler plate and diluted with two volumes of aqueous mobile phase (0.1% formic acid in water). Samples were injected onto a reverse phase analytical column (YMC Triart C18; 2.0×50 mm; 1.9 μm; YMC CO) and eluted with a gradient of 0.1% formic acid in Acetonitrile. Assayed test compound and internal standards were monitored by a multiple reaction monitoring (MRM) experiment using an Analyst software (v1.6.2, Applied Biosystems SCIEX). Quantitation was conducted using a MultiQuant software (v2.1, Applied Biosystems SCIEX) and the resulting calibration curve was fitted with a linear regression and 1/x weighting. The lower limits of quantitation were 1<LLQ <5 ng/mL.

[1] = Kinetic solubility (nephelometry); type: physicochemical; conditions: aqueous buffer, kinetic from dmso stock; PBS pH 7.4, 1% DMSO, 1 hour at 37° C., light scattering at 625 nm
Description: Concentration (μM) was then calculated by segmental regression. Amiodarone (#A8423 Aldrich) was used as positive control.

[2] = In vitro microsomal stability, rat liver microsomes; type: in vitro ADME; conditions: for microsomal CLint at […], 1 µM / half-life at […], 1 µM / half-life at 1 μM: pH 7.4, rat liver microsomes; for microsomal CLint at […], 1 µM: intrinsic clearance, read-out: Clint @ rLM; for half-life at […], 1 µM / half-life at 1 μM: rat, read-out: T1/2 @ rLM; for Rem. @ rLM (%): remaining fraction after 30 min, 1 μM compound, 0.5 mg/mL rat liver microsomes, 1 mM NADPH
Description: (§1) Compounds were incubated at a final concentration of 1 μM with 0.5 mg/mL human liver microsomes (hLM) (#HMMCPL; Thermo), mouse liver microsomes (mLM) (#MSMCPL; Thermo) or rat liver microsomes (rLM) (#RTMCPL; Thermo) and 1 mM reduced dihydronicotinamide-adenine dinucleotide phosphate (NADPH) (#N1630; Sigma) in 100 mM phosphate buffer (pH 7.4) at 37° C. The reactions were terminated at 0, 5, 15 and 30 min by the addition of cold acetonitrile containing 50 ng/mL propranolol as an internal standard. […] Verapamil hydrochloride (#V4369 Aldrich) was used as a positive control in all studies.

[3] = In vitro microsomal stability, human liver microsomes; type: in vitro ADME; conditions: for microsomal CLint at […], 1 µM: intrinsic clearance, read-out: Clint @ hLM; for Rem. @ hLM (%): remaining fraction after 30 min, 1 μM compound, 0.5 mg/mL human liver microsomes, 1 mM NADPH
Description: as §1

[4] = mouse, in vivo, po, 10 mg/kg; for AUCExtr [%] / F [%] / Vz: Balb/c
Description: as §3, §4, §5, §6, §7

[5] = In vitro microsomal stability, mouse liver microsomes; type: in vitro ADME; conditions: for half-life at […], 1 µM / half-life at 1 μM: mouse, read-out: T1/2 @ mLM; for half-life at […], 1 µM / microsomal CLint at […], 1 µM / half-life at 1 μM: mouse liver microsomes, pH 7.4; for microsomal CLint at […], 1 µM: intrinsic clearance, read-out: Clint @ mLM; for Rem. @ mLM (%): remaining fraction after 30 min, 1 μM compound, 0.5 mg/mL mouse liver microsomes, 1 mM NADPH
Description: as §1

CYP3A4 = CYP3A4 (Homo sapiens (Human), UniProt P08684); test: CYP inhibition in human liver microsomes; conditions: read-out: CYP-3A4; human liver microsomes; probe substrate midazolam
CYP3A4, sequence (P08684 whole entry, canonical isoform): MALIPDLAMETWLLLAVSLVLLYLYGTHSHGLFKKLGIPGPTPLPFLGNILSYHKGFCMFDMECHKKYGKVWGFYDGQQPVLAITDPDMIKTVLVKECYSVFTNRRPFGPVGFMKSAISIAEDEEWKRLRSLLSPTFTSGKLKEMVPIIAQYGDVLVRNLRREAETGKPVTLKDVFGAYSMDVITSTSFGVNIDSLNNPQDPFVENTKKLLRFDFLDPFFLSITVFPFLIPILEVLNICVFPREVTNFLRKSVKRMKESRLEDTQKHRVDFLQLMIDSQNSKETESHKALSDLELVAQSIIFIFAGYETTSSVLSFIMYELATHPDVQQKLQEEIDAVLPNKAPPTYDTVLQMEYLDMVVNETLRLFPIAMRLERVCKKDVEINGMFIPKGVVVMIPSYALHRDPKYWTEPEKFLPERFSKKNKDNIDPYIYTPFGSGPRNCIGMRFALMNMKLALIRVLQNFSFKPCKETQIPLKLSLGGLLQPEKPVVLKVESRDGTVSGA
Description: (§2) CYP inhibition by test compounds in human liver microsomes (HLM) for seven major CYP450 isoforms CYP1A2, CYP2C9, CYP2D6, CYP2B6, CYP2C8, CYP2C19 and CYP3A4 were assessed. […] 50 μM phenacetin, 2 μM midazolam, 5 μM diclofenac, 50 μM mephenytoin, 80 μM bupropion, and 5 μM dextromethorphan were used as probe substrates of CYP1A2, CYP3A4, CYP2C9, CYP2C19, CYP2B6, and CYP2D6, respectively. The incubation times were 20 min for […], CYP2D6, CYP2C9, CYP2B6, and CYP2C8; 40 min for CYP2C19; and 10 min for CYP 3A4. Following incubations, the reactions were terminated with acetonitrile containing internal standard. The samples were centrifuged and the supernatants were analyzed for the formation of metabolites (1-hydroxymidazolam (CYP3A4), 4-hydroxydiclofenac (CYP2C9), 4-hydroxymephenytoin (CYP2C19) and dextrorphan (CYP2D6), hydroxybupropion (CYP2B6), acetaminophen (CYP1A2), desethylamodiaquine (CYP2C8)) by LC/MS/MS.

CYP2C9 = CYP2C9 (Homo sapiens (Human), UniProt P11712); test: CYP inhibition in human liver microsomes; conditions: read-out: CYP-2C9; human liver microsomes; probe substrate diclofenac
CYP2C9, sequence (P11712 whole entry): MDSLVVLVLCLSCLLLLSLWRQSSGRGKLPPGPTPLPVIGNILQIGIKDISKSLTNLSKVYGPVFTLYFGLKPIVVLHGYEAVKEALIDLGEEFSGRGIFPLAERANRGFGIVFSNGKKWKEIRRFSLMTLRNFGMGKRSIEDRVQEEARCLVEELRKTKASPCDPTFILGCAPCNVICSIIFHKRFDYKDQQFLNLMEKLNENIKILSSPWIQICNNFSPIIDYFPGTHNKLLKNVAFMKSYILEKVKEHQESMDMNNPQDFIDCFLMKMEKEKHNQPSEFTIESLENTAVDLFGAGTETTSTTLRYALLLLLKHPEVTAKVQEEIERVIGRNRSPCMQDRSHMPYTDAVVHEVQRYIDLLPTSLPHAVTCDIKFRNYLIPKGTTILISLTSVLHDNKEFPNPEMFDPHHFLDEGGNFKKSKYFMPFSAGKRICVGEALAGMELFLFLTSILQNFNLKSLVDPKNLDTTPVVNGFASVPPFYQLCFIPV
Description: as §2

CYP2D6 = CYP2D6 (Homo sapiens (Human), UniProt P10635); test: CYP inhibition in human liver microsomes; conditions: read-out: CYP-2D6; human liver microsomes; probe substrate dextromethorphan
CYP2D6, sequence (P10635 whole entry): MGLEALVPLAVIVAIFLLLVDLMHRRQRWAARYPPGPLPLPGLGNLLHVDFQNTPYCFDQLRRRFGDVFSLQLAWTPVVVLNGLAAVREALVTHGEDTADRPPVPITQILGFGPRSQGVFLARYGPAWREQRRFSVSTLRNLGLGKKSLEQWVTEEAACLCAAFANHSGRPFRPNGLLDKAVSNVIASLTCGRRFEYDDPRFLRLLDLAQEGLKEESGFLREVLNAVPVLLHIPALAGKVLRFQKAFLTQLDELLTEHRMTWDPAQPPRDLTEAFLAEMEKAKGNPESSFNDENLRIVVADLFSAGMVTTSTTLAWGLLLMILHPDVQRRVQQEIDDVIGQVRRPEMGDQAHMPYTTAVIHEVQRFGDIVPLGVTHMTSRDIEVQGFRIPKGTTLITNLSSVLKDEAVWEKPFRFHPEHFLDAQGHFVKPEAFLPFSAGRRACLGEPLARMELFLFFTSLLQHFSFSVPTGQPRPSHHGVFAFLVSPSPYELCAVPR
Description: as §2

CYP2C19 = CYP2C19 (Homo sapiens (Human), UniProt P33261); test: CYP inhibition in human liver microsomes; conditions: read-out: CYP-2C19; human liver microsomes; probe substrate mephenytoin
CYP2C19, sequence (P33261 whole entry): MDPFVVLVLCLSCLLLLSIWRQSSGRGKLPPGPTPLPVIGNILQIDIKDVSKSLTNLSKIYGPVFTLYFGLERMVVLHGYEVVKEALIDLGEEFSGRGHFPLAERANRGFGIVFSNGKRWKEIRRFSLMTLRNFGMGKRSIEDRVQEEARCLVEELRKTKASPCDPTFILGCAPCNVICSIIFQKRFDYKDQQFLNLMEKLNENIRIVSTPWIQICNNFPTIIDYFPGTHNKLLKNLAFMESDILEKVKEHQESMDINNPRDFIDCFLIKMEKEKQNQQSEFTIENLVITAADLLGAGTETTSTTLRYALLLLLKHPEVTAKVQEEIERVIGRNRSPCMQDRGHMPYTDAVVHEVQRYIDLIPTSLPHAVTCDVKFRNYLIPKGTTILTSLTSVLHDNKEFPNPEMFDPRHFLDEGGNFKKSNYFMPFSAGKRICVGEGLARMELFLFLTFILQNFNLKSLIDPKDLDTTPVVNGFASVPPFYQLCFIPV
Description: as §2

CYP2C8 = CYP2C8 (Homo sapiens (Human), UniProt P10632); test: CYP inhibition in human liver microsomes; conditions: read-out: CYP-2C8, metabolite desethylamodiaquine
CYP2C8, sequence (P10632 whole entry): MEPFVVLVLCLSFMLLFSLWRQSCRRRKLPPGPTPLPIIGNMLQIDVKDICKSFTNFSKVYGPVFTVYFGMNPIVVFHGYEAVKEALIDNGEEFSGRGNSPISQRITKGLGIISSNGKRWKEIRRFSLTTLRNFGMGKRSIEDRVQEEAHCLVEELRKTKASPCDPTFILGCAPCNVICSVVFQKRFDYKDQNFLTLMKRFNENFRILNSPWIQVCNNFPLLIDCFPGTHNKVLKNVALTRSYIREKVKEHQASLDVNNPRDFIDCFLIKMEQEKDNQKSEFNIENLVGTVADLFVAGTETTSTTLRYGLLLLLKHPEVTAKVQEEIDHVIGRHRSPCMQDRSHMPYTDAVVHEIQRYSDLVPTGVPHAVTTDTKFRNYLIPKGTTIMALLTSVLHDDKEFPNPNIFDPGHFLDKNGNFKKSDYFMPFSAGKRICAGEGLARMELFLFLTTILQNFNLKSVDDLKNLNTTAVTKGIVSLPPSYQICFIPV
Description: as §2

CYP2B6 = CYP2B6 (Homo sapiens (Human), UniProt P20813); test: CYP inhibition in human liver microsomes; conditions: read-out: CYP-2B6; human liver microsomes; probe substrate bupropion
CYP2B6, sequence (P20813 whole entry): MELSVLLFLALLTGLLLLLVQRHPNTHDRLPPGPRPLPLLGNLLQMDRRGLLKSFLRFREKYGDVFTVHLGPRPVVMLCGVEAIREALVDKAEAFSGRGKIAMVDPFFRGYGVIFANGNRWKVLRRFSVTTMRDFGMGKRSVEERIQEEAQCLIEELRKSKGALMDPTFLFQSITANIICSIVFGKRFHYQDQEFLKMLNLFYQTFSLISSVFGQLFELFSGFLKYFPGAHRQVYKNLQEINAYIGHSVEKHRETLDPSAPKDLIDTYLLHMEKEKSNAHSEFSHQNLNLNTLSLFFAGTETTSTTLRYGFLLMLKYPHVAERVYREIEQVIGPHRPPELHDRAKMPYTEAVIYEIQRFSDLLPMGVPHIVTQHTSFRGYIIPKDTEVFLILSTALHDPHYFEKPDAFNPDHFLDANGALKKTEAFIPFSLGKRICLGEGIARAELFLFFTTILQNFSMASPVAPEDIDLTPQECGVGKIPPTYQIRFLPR
Description: as §2

ATF6 = test: ERSE ATF6-luciferase reporter assay (thapsigargin-induced ER stress); type: cell-based, human; conditions: Homo sapiens, U2OS, thapsigargin-induced ER stress, U2-OS ATF6 luc reporter cells; for inhibition at 1 µM: 8 h, read-out: Inh. ATF6-Luc @ 1 μM [%], 1 μM test compound, 8 hr; for IC50: read-out: IC50 ATF6-Luc reporter [μM], dose-response 30 μM to 1 nM
[6] = human, human liver microsomes, pH 7.4, read-out: T1/2 @ hLM

Row | Compound | solubility kinetic at 1 h [1] | microsomal CLint at […], 1 µM [2] | Rem. @ rLM (%) [2] | microsomal CLint at […], 1 µM ([3]; pH 7.4, human liver microsomes) | Rem. @ hLM (%) [3] | microsomal CLint at […], 1 µM [5] | Rem. @ mLM (%) [5] | IC50 (CYP3A4) | IC50 (CYP2C9) | IC50 (CYP2D6) | IC50 (CYP2C19) | IC50 (CYP2C8) | IC50 (CYP2B6) | IC50 (ATF6) | half-life at 1 μM [2] | AUC(0-inf) (in vivo) | AUC(0-t) (in vivo) | half-life at […], 1 µM [3, 6] | half-life at […], 1 µM [5] | inhibition at 1 µM (ATF6) | other results
1 | O=C(Nc1cnn(Cc2ccc(C(F)(F)F)cc2C(F)(F)F)c1)c1cc(-c2cnccn2)on1 [Compound 114, N-(1-(2,4-bis(trifluoromethyl)benzyl)-1H-pyrazol-4-yl)-5-(pyrazin-2-yl)isoxazole-3-carboxamide] | 1.17 µM (≈ 0.564 µg/mL) | 25 µL/min/mg | 69.7% | 6.5 µL/min/mg | 90.4% | 8.4 µL/min/mg | 86.8% | > 50 µM | > 50 µM | > 50 µM | > 50 µM | > 50 µM | > 50 µM | < 1 µM | – | 11900 ng·h/mL | 10300 ng·h/mL | 3.55 h | 2.75 h | > 50% | Cmax (in vivo): 899 ng/mL; Tmax (in vivo): 0.5 h; half-life (in vivo): 8.66 h; half-life at […], 1 µM [2]: 0.923 h; AUCExtr [%] [4]: 14%; F [%] [4]: 43.3%; Vz [4]: 10.5 L/kg; Last time point for AUClast [4]: 24 h
2 | O=C(Nc1cnn(Cc2ccc(C(F)(F)F)cc2C(F)(F)F)c1)c1cc(-c2ccccn2)on1 [Compound 11, N-(1-(2,4-bis(trifluoromethyl)benzyl)-1H-pyrazol-4-yl)-5-(pyridin-2-yl)isoxazole-3-carboxamide] | 9.41 µM (≈ 4.53 µg/mL) | 44 µL/min/mg | 44.8% | 21 µL/min/mg | 73.5% | 55 µL/min/mg | 40.8% | > 50 µM | 7.77 µM | > 50 µM | 9.85 µM | 1.09 µM | 16.9 µM | < 1 µM | 0.522 h | 10300 ng·h/mL | 9780 ng·h/mL | 1.12 h | – | > 50% | Cmax (in vivo): 2270 ng/mL; Tmax (in vivo): 0.25 h; half-life (in vivo): 6.24 h; AUCExtr [%] [4]: 5.07%; F [%] [4]: 48.6%; Vz [4]: 8.74 L/kg; Last time point for AUClast [4]: 24 h; half-life at 1 μM [5]: 0.422 h
3 | Cc1nn([C@H](C)c2ccc(C(F)(F)F)cc2C(F)(F)F)cc1NC(=O)c1cc(-c2ccccn2)on1 [Compound 99, (R)—N-(1-(1-(2,4-bis(trifluoromethyl)phenyl)ethyl)-3-methyl-1H-pyrazol-4-yl)-5-(pyridin-2-yl)isoxazole-3-carboxamide] | 2.34 µM (≈ 1.19 µg/mL) | 28.3 µL/min/mg | 60.9% | 39.2 µL/min/mg | 49.2% | 85.2 µL/min/mg | 29.2% | > 50 µM | 2.5 µM | 32 µM | 8.8 µM | 1 µM | 4.8 µM | 1 to 10 µM | 0.817 h | – | – | – | 0.272 h | 25 to 50% | half-life at 1 μM [3, 6]: 0.59 h
4 | C[C@H](c1ccc(C(F)(F)F)cc1C(F)(F)F)n1cc(NC(=O)c2cc(-c3ccccn3)no2)cn1 [Compound 76, (R)—N-(1-(1-(2,4-bis(trifluoromethyl)phenyl)ethyl)-1H-pyrazol-4-yl)-3-(pyridin-2-yl)isoxazole-5-carboxamide] | 7.03 µM (≈ 3.48 µg/mL) | 34.7 µL/min/mg | 59.4% | 24.1 µL/min/mg | 69.7% | 19.3 µL/min/mg | 74.9% | > 50 µM | 6 µM | 7.54 µM | 3.6 µM | 1.14 µM | 6.45 µM | < 1 µM | – | 45300 ng·h/mL | 44100 ng·h/mL | 0.96 h | 1.2 h | > 50% | Cmax (in vivo): 5180 ng/mL; Tmax (in vivo): 1 h; half-life (in vivo): 4.54 h; half-life at […], 1 µM [2]: 0.665 h; AUCExtr [%] [4]: 2.55%; F [%] [4]: 50.6%; Vz [4]: 1.45 L/kg; Last time point for AUClast [4]: 24 h

Now from value to compound, other results behind:

Row | solubility kinetic at 1 h [1] | microsomal CLint at […], 1 µM [2] | Rem. @ rLM (%) [2] | microsomal CLint at […], 1 µM ([3]; pH 7.4, human liver microsomes) | Rem. @ hLM (%) [3] | microsomal CLint at […], 1 µM [5] | Rem. @ mLM (%) [5] | IC50 (CYP3A4) | IC50 (CYP2C9) | IC50 (CYP2D6) | IC50 (CYP2C19) | IC50 (CYP2C8) | IC50 (CYP2B6) | IC50 (ATF6) | half-life at 1 μM [2] | Compound | AUC(0-inf) (in vivo) | AUC(0-t) (in vivo) | half-life at […], 1 µM [3, 6] | half-life at […], 1 µM [5] | inhibition at 1 µM (ATF6) | other results
5 | 28.1 µM (≈ 14.4 µg/mL) | 7.2 µL/min/mg | 86.4% | 10 µL/min/mg | 84.4% | 10.9 µL/min/mg | 82.6% | > 50 µM | > 50 µM | > 50 µM | > 50 µM | > 50 µM | > 50 µM | < 1 µM | – | C[C@H](c1ccc(C(F)(F)F)cc1C(F)(F)F)n1cc(NC(=O)c2nnc(-c3cnccn3)s2)cn1 [Compound 152, (R)—N-(1-(1-(2,4-bis(trifluoromethyl)phenyl)ethyl)-1H-pyrazol-4-yl)-5-(pyrazin-2-yl)-1,3,4-thiadiazole-2-carboxamide] | – | – | 2.32 h | 2.12 h | > 50% | half-life at […], 1 µM [2]: 3.2 h
6 | 3.51 µM (≈ 1.74 µg/mL) | 23.9 µL/min/mg | 64.5% | 10.4 µL/min/mg | 84.4% | 26.4 µL/min/mg | 62.5% | > 50 µM | > 45.9 µM | 35.5 µM | 2.9 µM | 30.5 µM | 23.6 µM | < 1 µM | 0.968 h | C[C@H](c1ccc(C(F)(F)F)cc1C(F)(F)F)n1cc(NC(=O)c2cn(-c3ccccn3)nn2)cn1 [Compound 121, (R)—N-(1-(1-(2,4-bis(trifluoromethyl)phenyl)ethyl)-1H-pyrazol-4-yl)-1-(pyridine-2-yl)-1H-1,2,3-triazole-4-carboxamide] | – | – | 2.22 h | – | 25 to 50% | half-life at 1 μM [5]: 0.873 h
7 | 2.92 µM (≈ 1.41 µg/mL) | 20.2 µL/min/mg | 69.8% | 18.2 µL/min/mg | 74.1% | 34.7 µL/min/mg | 51.1% | > 50 µM | > 50 µM | > 50 µM | > 50 µM | > 50 µM | > 50 µM | < 1 µM | 1.15 h | Cc1c(NC(=O)c2cc(-c3ccco3)on2)cnn1Cc1ccc(C(F)(F)F)cc1C(F)(F)F [Compound 93, N-(1-(2,4-bis(trifluoromethyl)benzyl)-5-methyl-1H-pyrazol-4-yl)-5-(furan-2-yl)isoxazole-3-carboxamide] | – | – | 1.27 h | – | > 50% | half-life at 1 μM [5]: 0.667 h
